The IC50 is the concentration at which inhibition is half-maximal. High values mean lower potency, low ones higher potency.

Like-named read-outs stand apart in the source and are kept apart here.

For data set [1], the system named is HIV-1 BR/93/021. Description: Anti-HIV efficacy in fresh human PBMCs, reverse transcriptase readout, HIV-1 BR/93/021. As to conditions: for TI (TC50/IC50): HIV-1 BR/93/021, PBMCs; for IC50: HIV-1 BR/93/021, fresh human PBMCs, seven days, RT activity. In kind it is cell-based. The method, then: Compounds were evaluated for their ability to inhibit HIV replication in fresh human PBMCs. The assay was performed as follows.
Fresh human PBMCs, seronegative for HIV and HBV, were isolated from screened donors (Interstate Blood Bank, Inc. Memphis, Tenn.). Cells were pelleted/washed 2-3 times by low speed centrifugation and re-suspension in PBS to remove contaminating platelets. The Leukophoresed blood was then diluted 1:1 with Dulbecco's Phosphate Buffered Saline (DPBS) and layered over 14 mL of Lymphocyte Separation Medium (LSM; Cellgro® by Mediatech, Inc.; density 1.078+/−0.002 g/ml; Cat.#85-072-CL) in a 50 mL centrifuge tube and then centrifuged for 30 minutes at 600×g. Banded PBMCs were gently aspirated from the resulting interface and subsequently washed 2× with PBS by low speed centrifugation. After the final wash, cells were enumerated by trypan blue exclusion and re-suspended at 1×10^7 cells/mL in RPMI 1640 supplemented with 15% Fetal Bovine Serum (FBS), and 2 mM L-glutamine, 4 μg/mL Phytohemagglutinin (PHA-P, Sigma). The cells were allowed to incubate for 48-72 hours at 37° C. After incubation, PBMCs were centrifuged and resuspended in RPMI 1640 with 15% FBS, 2 mM L-glutamine, 100 U/mL penicillin, 100 μg/mL streptomycin, 10 μg/mL gentamycin, and 20 U/mL recombinant human IL-2 (R&D Systems, Inc). IL-2 is included in the culture medium to maintain the cell division initiated by the PHA mitogenic stimulation. PBMCs were maintained in this medium at a concentration of 1-2×10^6 cells/mL with biweekly medium changes until used in the assay protocol. Cells were kept in culture for a maximum of two weeks before being deemed too old for use in assays and discarded. Monocytes were depleted from the culture as the result of adherence to the tissue culture flask.
(§1) For the standard PBMC assay, PHA-P stimulated cells from at least two normal donors were pooled (mixed together), diluted in fresh medium to a final concentration of 1×10^6 cells/mL, and plated in the interior wells of a 96 well round bottom microplate at 50 μL/well (5×10^4 cells/well) in a standard format developed by the Infectious Disease Research department of Southern Research Institute. Pooling (mixing) of mononuclear cells from more than one donor is used to minimize the variability observed between individual donors, which results from quantitative and qualitative differences in HIV infection and overall response to the PHA and IL-2 of primary lymphocyte populations. Each plate contains virus/cell control wells (cells plus virus), experimental wells (drug plus cells plus virus) and compound control wells (drug plus media without cells, necessary for MTS monitoring of cytotoxicity). Since HIV-1 is not cytopathic to PBMCs, this allows the use of the same assay plate for both antiviral activity and cytotoxicity measurements. Test drug dilutions were prepared at a 2× concentration in microtiter tubes and 100 μL of each concentration was placed in appropriate wells using the standard format. 50 μL of a predetermined dilution of virus stock was placed in each test well (final MOI≅0.1). The PBMC cultures were maintained for seven days following infection at 37° C., 5% CO2. After this period, cell-free supernatant samples were collected for analysis of reverse transcriptase activity as a measure of virus release. Following removal of supernatant samples, compound cytotoxicity was measured by addition of MTS to the plates for determination of cell viability. Wells were also examined microscopically and any abnormalities were noted.
A microtiter plate-based reverse transcriptase (RT) reaction was utilized (Buckheit et al., AIDS Research and Human Retroviruses 7:295-302, 1991). Tritiated thymidine triphosphate (3H-TTP, 80 Ci/mmol, NEN) was received in 1:1 dH2O:Ethanol at 1 mCi/mL. […]

Data set [2] in a line: MTS staining for PBMC viability to measure cytotoxicity. It counts as cell-based, human. The settings on record: human. The method, then:
as §1
At assay termination, assay plates were stained with the soluble tetrazolium-based dye MTS (CellTiter 96 Reagent, Promega) to determine cell viability and quantify compound toxicity. The mitochondrial enzymes of metabolically active cells metabolize MTS to yield a soluble formazan product. This allows the rapid quantitative analysis of cell viability and compound cytotoxicity. […] At termination of the assay, 20 μL of MTS reagent was added per well. The microtiter plates were then incubated 4-6 hrs at 37° C. The incubation intervals were chosen based on empirically determined times for optimal dye reduction. Adhesive plate sealers were used in place of the lids, the sealed plate was inverted several times to mix the soluble formazan product and the plate was read spectrophotometrically at 490/650 nm with a Molecular Devices Vmax or SpectraMaxPlus plate reader.
(§2) Compounds were tested in the PBMC assay using the maximum high-test concentration possible based on the supplied stocks which are listed in table 3. Compounds were prepared at a 2× high-test concentration by combining drug stock with tissue culture media at a ratio of 5 μL of drug to 995 μL of media. This 2× high-test sample was subsequently serially diluted in tissue culture media using 1/2 log dilutions. This series of 2× concentrated drug was subsequently diluted 1:1 by combining with an equal volume of cells in media in the 96-well plates used for the assay.

The nature of data set [3]: MTS staining for cell viability in U1 cell assay. It counts as cell-based. As to conditions: human, U1 cells stimulated with TNF-α, read-out: TC50. On the procedure: At the time of the assay, cells were collected by centrifugation and counted by hemacytometer. If cell viability by Trypan Blue dye exclusion was less than 70% the assay was terminated. The cells were adjusted to 5×10^4 cells/mL and 100 μL placed in 96 well plates with 100 μL media containing a final concentration of 5 ng/mL TNF-α and the test compound. Cultures were incubated for 3 days and supernatants harvested. Compound toxicity was determined by MTS dye reduction. Virus expression was measured by supernatant reverse transcriptase activity.
At assay termination, the assay plates were stained with the soluble tetrazolium-based dye MTS (CellTiter 96 Reagent, Promega) to determine cell viability and quantify compound toxicity as described for the PBMC assay.
as §2, with “U1 latency” for “PBMC”, “3. Compounds were tested using the maximum high-test concentration possible based on the supplied stocks.” for “3.”, “assay. Temacrazine a known inhibitor of HIV transcription was used as a control compound that is active in the post-integration part of the HIV life cycle.” for “assay.”
Compounds were tested using the maximum high-test concentration possible based on the supplied stocks. Compounds were prepared at a 2× high-test concentration by combining drug stock with tissue culture media at a ratio of 5 μL of drug to 995 μL of media. This 2× high-test (HT) sample was subsequently serially diluted in tissue culture media using 1/2 log dilutions. This series of 2× concentrated drug was subsequently diluted 1:1 by combining with an equal volume of cells in media in the 96-well plates used for the assay.

Setting [4] is: PBMC plates with HIV-1 BR/93/021, MTS, read-out: TC50.
Setting [5] is: PBMC plates with HIV-1 NL4-3, MTS, read-out: TC50.
Setting [6] is: Human immunodeficiency virus 1, PBMC, 168 h.

Take “2-chloro-N-(4-methylphenyl)-4-(trifluoromethyl)-1,3-thazole-5-carboxamide [Compound 91161]”: in data set [1], the “TI (TC50/IC50)” value is reported as 12.01 and the IC50 amounted to 1.94 µM.
As to `CCc1c(C(=O)Nc2ccccc2)c(C)nc2sc(C(N)=O)c(N)c12` [Compound 75168, 3-amino-4-ethyl-6-methyl-N˜5˜-phenylthieno[2,3-b]pyridine-2,5-dicarboxamide], the CC50 at 7 days in data set [2] (setting [4]) and in data set [2] (setting [5]) was greater than 26.8 µM each time. In data set [1], the “TI (TC50/IC50)” value is on record as greater than 12.52. In data set [1] (setting [6]), the IC50 is 2.14 µM.
For the compound `COc1ccc2cc3c(N)n[nH]c3nc2c1` [Compound 89246, 7-methoxy-1H-pyrazolo[3,4-b]quinolin-3-ylamine], the CC50 at 7 days is 32.7 µM in data set [2] (setting [4]) and 21.9 µM in data set [2] (setting [5]). Also, the CC50 at 3 days turned out to be 24.6 µM in data set [3] (Table 6, MTS) and 29 µM in data set [3] (analogs, Table 8, MTS). Besides, the “TI (TC50/IC50)” value in data set [1] was 69.57. Half-maximal inhibition in data set [1] (setting [6]) (IC50) was put at 0.47 µM.
As to `CCc1c(C)nc2sc(C(N)=O)c(N)c2c1C` [Compound 103833, 3-amino-5-ethyl-4,6-dimethylthieno[2,3-b]pyridine-2-carboxamide], the CC50 at 7 days in data set [2] (TC50) was greater than 37.6 µM. The CC50 at 3 days in data set [3] (Table 6, MTS) is greater than 37.6 µM. The “TI (TC50/IC50)” value in data set [1] is reported as greater than 129.66. Besides, in data set [1] (setting [6]), the IC50 amounted to 0.29 µM.
Take `COc1ccc2nc(C(F)(F)F)c(C#N)c(N)c2c1` [Compound 104366, 4-amino-6-methoxy-2-(trifluoromethyl)-3-quinolinecarbonitrile]: the CC50 at 7 days in data set [2] (setting [4]) stood at 24.9 µM; in data set [2] (setting [5]) it was 22 µM. In addition, the CC50 at 3 days in data set [3] (Table 6, MTS) worked out at 12.4 µM. Also, the “TI (TC50/IC50)” value in data set [1] worked out at 38.91. In addition, half-maximal inhibition in data set [1] (setting [6]) (IC50) was put at 0.64 µM.
The like results for `CS(=O)(=O)c1ncc(-c2ccc(Br)cc2)cn1` [Compound 107129, -(4-bromophenyl)-2-(methylsulfonyl)pyrimidine] were, in that order, 6.26 µM, 4.13 µM, greater than 53 µM, 3.48 and 1.8 µM.
The corresponding values for `COc1cccc(NC(=O)c2cc(Cl)nnc2Cl)c1` [Compound 107740, 3,6-dichloro-N-(3-methoxyphenyl)-4-pyridazinecarboxamide] are 18.8 µM, 14.4 µM, greater than 29.3 µM, 94.00 and 0.2 µM.
On to `Fc1ccc(Nc2ncnc3ccccc23)cc1Cl` [Compound 109020, N-(3-chloro-4-fluorophenyl)-N-(4-quinazolinyl)amine], for which the CC50 at 7 days in data set [2] (TC50) was greater than 40.8 µM. In addition, the CC50 at 3 days in data set [3] (Table 6, MTS) was greater than 40.8 µM. Besides, the “TI (TC50/IC50)” value in data set [1] was greater than 3.09. Further, the IC50 in data set [1] (setting [6]) was 13.2 µM.
